Test: Stability of ethyl pyruvate in three formulations as measured by pH change over time
Format: physicochemical
Protocol: Formulations comprising ethyl pyruvate at various concentrations ([…]) were prepared by dissolving ethyl pyruvate in either commercially available Ringer's Lactate solution (potassium chloride (0 to about 4 mM), sodium chloride (about 100 to about 156 mM), calcium chloride (about 2.5 mM to about 3.0 mM), and sodium lactate (about 25 mM to about 30 mM)) or Ringer-like solution (potassium chloride (0 to about 4 mM), sodium chloride (about 100 to about 156 mM) and calcium chloride (about 2.5 mM to about 3.0 mM)), or Intralipid™ (1 000 mL contain: purified soybean oil 100-300 g, purified egg phospholipids 12 g, glycerol anhydrous 22 g, water for injection q.s. ad 1 000 mL. pH was adjusted with sodium hydroxide to pH approximately 8. Osmolality was about 300 mOsm/kg water). Acidity of each solution was measured at 0, 5, 30 and 60 minutes, 2, 4, 24, and 48 hours after dissolution of ethyl pyruvate.

CCOC(=O)C(C)=O [Ethyl Pyruvate, ethyl pyruvate]
pH (Intralipid, EP 1 %, 0 min after dissolution): 6.8 | pH (Intralipid, EP 1 %, 5 min after dissolution): 6.8 | pH (Intralipid, EP 1 %, 30 min after dissolution): 6.8 | pH (Intralipid, EP 1 %, 60 min after dissolution): 6.5 | pH (Intralipid, EP 1 %, 2 h after dissolution): 6.5 | pH (Intralipid, EP 1 %, 4 h after dissolution): 6.5 | pH (Intralipid, EP 1 %, 24 h after dissolution): 6.5 | pH (Intralipid, EP 1 %, 48 h after dissolution): 6.5 | pH (Intralipid, EP 5 %, 0 min after dissolution): 6.8 | pH (Intralipid, EP 5 %, 5 min after dissolution): 6.8 | pH (Intralipid, EP 5 %, 30 min after dissolution): 6.5 | pH (Intralipid, EP 5 %, 60 min after dissolution): 6.0 | pH (Intralipid, EP 5 %, 2 h after dissolution): 6.0 | pH (Intralipid, EP 5 %, 4 h after dissolution): 6.0 | pH (Intralipid, EP 5 %, 24 h after dissolution): 5.5 | pH (Intralipid, EP 5 %, 48 h after dissolution): 5.0 | pH (Intralipid, EP 10 %, 0 min after dissolution): 6.8 | pH (Intralipid, EP 10 %, 5 min after dissolution): 6.5 | pH (Intralipid, EP 10 %, 30 min after dissolution): 6.0 | pH (Intralipid, EP 10 %, 60 min after dissolution): 6.0 | pH (Intralipid, EP 10 %, 2 h after dissolution): 6.0 | pH (Intralipid, EP 10 %, 4 h after dissolution): 5.5 | pH (Intralipid, EP 10 %, 24 h after dissolution): 4.0 | pH (Intralipid, EP 10 %, 48 h after dissolution): 4.0 | drop in pH (Lactated Ringers Balanced Salt Solution, 1%, 5% and 10% by weight, over a 48 hour period): relatively reduced drop in pH | pH (Ringer' lactate, EP 1 %, 0 min after dissolution): 6.0 | pH (Ringer' lactate, EP 1 %, 5 min after dissolution): 6.0 | pH (Ringer' lactate, EP 1 %, 30 min after dissolution): 5.5 | pH (Ringer' lactate, EP 1 %, 60 min after dissolution): 5.5 | pH (Ringer' lactate, EP 1 %, 2 h after dissolution): 5.2 | pH (Ringer' lactate, EP 1 %, 4 h after dissolution): 5.2 | pH (Ringer' lactate, EP 1 %, 24 h after dissolution): 5.2 | pH (Ringer' lactate, EP 1 %, 48 h after dissolution): 5.2 | pH (Ringer' lactate, EP 5 %, 0 min after dissolution): 6.0 | pH (Ringer' lactate, EP 5 %, 5 min after dissolution): 5.5 | pH (Ringer' lactate, EP 5 %, 30 min after dissolution): 5.3 | pH (Ringer' lactate, EP 5 %, 60 min after dissolution): 5.2 | pH (Ringer' lactate, EP 5 %, 2 h after dissolution): 5.2 | pH (Ringer' lactate, EP 5 %, 4 h after dissolution): 5.2 | pH (Ringer' lactate, EP 5 %, 24 h after dissolution): 5.2 | pH (Ringer' lactate, EP 5 %, 48 h after dissolution): 5.2 | pH (Ringer' lactate, EP 10 %, 0 min after dissolution): 6.0 | pH (Ringer' lactate, EP 10 %, 5 min after dissolution): 5.3 | pH (Ringer' lactate, EP 10 %, 30 min after dissolution): 5.3 | pH (Ringer' lactate, EP 10 %, 60 min after dissolution): 5.2 | pH (Ringer' lactate, EP 10 %, 2 h after dissolution): 5.2 | pH (Ringer' lactate, EP 10 %, 4 h after dissolution): 5.2 | pH (Ringer' lactate, EP 10 %, 24 h after dissolution): 5.2 | pH (Ringer' lactate, EP 10 %, 48 h after dissolution): 5.0 | pH (Ringer' solution (no lactate), EP 1 %, 0 min after dissolution): 6.5 | pH (Ringer' solution (no lactate), EP 1 %, 5 min after dissolution): 6.5 | pH (Ringer' solution (no lactate), EP 1 %, 30 min after dissolution): 6.5 | pH (Ringer' solution (no lactate), EP 1 %, 60 min after dissolution): 5.5 | pH (Ringer' solution (no lactate), EP 1 %, 2 h after dissolution): 5.5 | pH (Ringer' solution (no lactate), EP 1 %, 4 h after dissolution): 5.5 | pH (Ringer' solution (no lactate), EP 1 %, 24 h after dissolution): 5.5 | pH (Ringer' solution (no lactate), EP 1 %, 48 h after dissolution): 5.5 | pH (Ringer' solution (no lactate), EP 5 %, 0 min after dissolution): 6.5 | pH (Ringer' solution (no lactate), EP 5 %, 5 min after dissolution): 6.0 | pH (Ringer' solution (no lactate), EP 5 %, 30 min after dissolution): 6.0 | pH (Ringer' solution (no lactate), EP 5 %, 60 min after dissolution): 5.2 | pH (Ringer' solution (no lactate), EP 5 %, 2 h after dissolution): 5.2 | pH (Ringer' solution (no lactate), EP 5 %, 4 h after dissolution): 4.0 | pH (Ringer' solution (no lactate), EP 5 %, 24 h after dissolution): 2.0 | pH (Ringer' solution (no lactate), EP 5 %, 48 h after dissolution): 2.0 | pH (Ringer' solution (no lactate), EP 10 %, 0 min after dissolution): 6.5 | pH (Ringer' solution (no lactate), EP 10 %, 5 min after dissolution): 5.5 | pH (Ringer' solution (no lactate), EP 10 %, 30 min after dissolution): 5.3 | pH (Ringer' solution (no lactate), EP 10 %, 60 min after dissolution): 5.2 | pH (Ringer' solution (no lactate), EP 10 %, 2 h after dissolution): 5.2 | pH (Ringer' solution (no lactate), EP 10 %, 4 h after dissolution): 2.0 | pH (Ringer' solution (no lactate), EP 10 %, 24 h after dissolution): 2.0 | pH (Ringer' solution (no lactate), EP 10 %, 48 h after dissolution): 2.0 | stability as indicated by the pH readings (in Ringer's Lactate solution): remains stable

From patent US20030232884A1, “New pharmaceutical formulation” (Critical Therapeutics, Inc., priority 2002, published 2003)
